Columns and labels:
[1] = system: hormone receptor-positive metastatic breast cancer; conditions: cited from earlier work
[2] = system: other class I isoforms β, δ, and γ; conditions: cited from earlier work
[3] = Plasma pharmacokinetics, phase I, cycle 1; type: in vivo, human; conditions: 13 patients, with nab-paclitaxel
[4] = system: PI3Kα isoform (both wild-type and mutated p110α); conditions: cited from earlier work
[5] = system: patients with HER2-negative metastatic breast cancer; type: in vivo
[6] = system: patients with HER2-negative metastatic breast cancer; assay: Treatment-related adverse events; type: in vivo, human; conditions: 11/43; N=1 at 250mg, N=10 at 350mg
[7] = system: PIK3CA/AKT1/PTEN-altered metastatic TNBC; conditions: cited from earlier work

NC1(C(=O)N[C@@H](CCO)c2ccc(Cl)cc2)CCN(c2ncnc3[nH]ccc23)CC1 [capivasertib]
PFS with addition to fulvestrant [1]: improvement in PFS

Cc1nc(NC(=O)N2CCC[C@H]2C(N)=O)sc1-c1ccnc(C(C)(C)C(F)(F)F)c1 [alpelisib]
activity against the other class I isoforms β, δ, and γ [2]: significantly less active | Tmax, Cmax, and AUC (0–8 hrs) of alpelisib [3]: consistent with previous published reports | inhibition of PI3Kα isoform [4]: selectively inhibits PI3Kα isoform | MTD of alpelisib ([5]; in combination with nab-paclitaxel 100mg/m^2 D1,8,15): not reached | RP2D of alpelisib ([5]; orally daily, in combination with nab-paclitaxel 100mg/m^2 D1,8,15 every 28 days): 350 mg | Alpelisib dose reduction required, patients [6]: 26%

CC(C)NC[C@@H](C(=O)N1CCN(c2ncnc3c2[C@H](C)C[C@H]3O)CC1)c1ccc(Cl)cc1 [ipatasertib]
PFS with addition to first-line paclitaxel [7]: failed to show improvement in PFS

— paper PMC8282704 (Clinical cancer research : an official journal of the …, 2021)
